Assay results taken from US20250288558A1, “THERAPEUTIC FOR SPINAL CORD INJURY TO INDUCE HYPOTHERMIA” (The Trustees of Indiana University, priority 2024, published 2025).
Where a name gives a salt, the structure may show the parent alone. Read-outs that look alike come from different tables or passages of the source.

Columns and labels:
[1] = tested on: mice with contusive T9 moderate SCI (IH); settings: IH model
From the text: (§1) Rotarod test: Rotorod is used to assay the hindlimb function of the animal. The animal was put on a rotated device. It consisted of a metal frame with a motorized, rotating assembly of rods. Animals were allowed to remain stationary. […] If animal skilled, it can remain on the device at this speed for extra 30 sec until the 2-min test period elapsed. Normally, a trial was ended if the animal fell completely off the rod or gripped the rod and spun around without attempting to walk on the rod. Mean duration on the rod was recorded.

[2] = tested on: mice with moderate T9 contusive SCI; settings: weeks 3-6 post-injury, n=10, p<0.05
From the text: Thus, Rotarod was further performed to assess motor coordination, balance, and motor learning specifically post-injury.
as §1

[3] = tested on: mice with moderate T9 contusive SCI; settings: n=10; for foot fall rate: Dex+SCI
From the text: In addition to Rotarod test, Grid walk test further was ran twice at […] post-injury to assess hindlimb movements involved in sensorimotor functions, such as precise stepping, coordination and accurate placement of the paw. A one-foot drop error was counted when the hindlimb paw was entirely dropping through the grid with all toes and heel below the grid surface.
Grid-walking: The grid-walking test assesses the ability of a mouse to place its paws on the rungs of a grid accurately during spontaneous exploration. An elevated metal rectangle grid (12×36 inch2 with each grid cell 0.5×0.5 inch2) and 16 inches above a table top was used for the hindlimb drop error test. Each mouse was placed in the center of the grid for 3 min. A one-foot drop error was counted when the hindlimb paw was entirely dropping through the grid with all toes and heel below the grid surface. The total number of foot drop errors and total number of steps were recorded by video. Two observers who were blinded to the experiment analyzed the video and counted the steps. The grid-walking test was performed on the day before surgery and on days 21 and 35 post-SCI. Only those mice with consistent plantar stepping (BMS≥5) were tested on the grid.

[4] = tested on: SMI31-positive axons in white matter; settings: FIG. 8B
Method: (§2) We further counted the number of NeuN-positive neurons in each section. […] Therefore, SMI31, an axon maker immunostaining was performed to evaluate the axons in spared white matter.
(§3) Immunofluorescent Staining: Immunofluorescent staining was carried out according to our previous reports. In brief, sections on the slides were rinsed in PBS 3 times (5 minutes each) and incubated in blocking buffer (0.1% Triton X-100, 1% bovine serum albumin, and 5% normal serum in PBS) for 1 hour at room temperature. Then, primary antibodies were added to blocking buffer and incubated with sections overnight at 4° C. After 3 washes with PBS (5 minutes each), sections were incubated with the secondary antibody for 1 hour at room temperature and then treated with 4′,6-Diamidino-2-phenylindole (DAPI) for 2 minutes. Finally, sections were washed 3 times with PBS (5 minutes each), dried, and mounted using Fluoromount G (Southern Biotech, Birmingham, AL, USA). Primary antibodies and their final concentrations were as follows: NeuN antibody (1:500, chicken, Abcam, ab134014), SMI31 antibody (1:1000, mouse, Millipore, NE1022), and GFAP antibody (1:1000, mouse, Sigma, G3893).

NeuN-positive neurons = settings: after SCI, FIG. 8A
Method: as §2, §3

For `Cc1cccc([C@H](C)c2cnc[nH]2)c1C` [Dex, dexmedetomidine hydrochloride], the Rotarod duration time ([1]; 6 wk, SCI+Dex, n=10) was 35.3±1.84, the “Rotarod average increase rate vs. none-treatment SCI mice” value [1] was 55% and the “increased rate of Rotarod retention time vs. SCI only” value [2] was “around 75%”. The foot fall rate ([3]; 4 weeks post-injury) was 17.3±5.1%, the foot fall rate ([3]; 6 weeks post-injury) was 12.9±3.6% and the “recovery of sensorimotor functions (Grid Walk)” value ([3]; FIG. 3D, female) was “better recovery of sensorimotor functions”. The “SMI31 signal (intensity and area) vs. SCI” value [4] was “significantly preserved more” and the “surviving NeuN-positive neurons compared to none-treatment group” value (NeuN-positive neurons) was “about 10 times”.
